{
  "source": "patent US7875601B2",
  "about": "“Cancer treatment with epothilones” (Novartis AG, priority 1998, dated 2011)",
  "key": {"[1]": {"assay": "Determination of the single i.v. dose MTD in normal female BALB/c mice", "format": "in vivo", "description": "The Maximal Tolerated Dose (MTD) is determined according to standard procedures; preferably, in warm-blooded animals the MTD in case of oral or intravenous administration is determined as the Dose of a single administration where no death occurs and a loss of body weight of less than 40, preferably less than 25, percent (%) is found in the treated warm-blooded animal individual (this term here mainly referring to an animal; for humans see below).\nFor the MTD determination, female BALB/c nude mice or BALB/c mice (obtained from Novartis Animal Farm, Sisseln, Switzerland) are treated once intravenously with epothilone B (n=3 per dose group). The dosage is increased (2, 4, 6, 8, 10 and 12 mg/kg) and the mice are observed for the presentation of overt toxic effects for 10 days after drug treatment."}, "[2]": {"test_system": "PC-3M (Prostate)", "assay": "Antiproliferative assay, PC-3M", "format": "cell-based, human", "settings": "3 d exposure, mean ± SD, read-out: IC50 for growth inhibition", "description": "A human androgen-independent prostate cancer cell line is used to establish subcutaneous and orthotopic models in mice. The human metastatic prostate carcinoma PC-3M is obtained from Dr. I. J. Fidler (MD Anderson Cancer Center, Houston, Tex., USA) and is cultured in Ham's F12K media supplemented with 7% v/v FBS. The PC-3M cell line is the result of isolation from liver metastasis produced in nude mice subsequent to intrasplenic injection of PC-3 cells [ATCC CRL 1435; American Type Culture Collection (Rockville, Md., USA)], and they can grow in Eagle's MEM supplemented with 10% fetal bovine serum, sodium pyruvate, non-essential amino acids, L-glutamine, a two-fold vitamin solution (Gibco Laboratories, Long Island, N.Y.) and penicillin-streptomycin (Flow Laboratories, Rockville, Md.). The PC-3M cell line is hormone-insensitive (that is, it grows in the absence of androgens). […] No normal Y chromosomes can be detected by Q-band analysis.\nAntiproliferative assays are performed as previously described (Int. J. Cancer 43, 851-6 (1989)). […] After washing, the dye is eluted with 3% v/v HCl and the optical density measured at 665 nm with a SpectraMax 340 (Bucherer, Basel, Switzerland). IC50 values are determined by a computerized system (SoftPro, Bucherer, Basel, Switzerland) using the formula (OD test−OD start)/(OD control−OD start)×100. […]"}, "[3]": {"settings": "2 mg/kg single i.v. bolus, Experiment 2"}, "[4]": {"settings": "4 mg/kg single i.v. bolus, Experiment 2"}, "[5]": {"settings": "6 mg/kg single i.v. bolus, Experiment 1"}, "[6]": {"settings": "6 mg/kg single i.v. bolus, Experiment 2"}, "[7]": {"settings": "8 mg/kg single i.v. bolus, Experiment 1"}, "[8]": {"settings": "8 mg/kg single i.v. bolus, Experiment 2"}, "[9]": {"settings": "10 mg/kg single i.v. bolus, Experiment 1"}, "[10]": {"settings": "12 mg/kg single i.v. bolus, Experiment 1"}},
  "data": [
    {"compound": "C/C(=C\\c1csc(C)n1)[C@@H]1C[C@@H]2O[C@]2(C)CCC[C@H](C)[C@H](O)[C@@H](C)C(=O)C(C)(C)[C@@H](O)CC(=O)O1", "note": "[epothilone B]", "values": [
      {"measurement": "Body Weight % Change", "setting": "[1]; [3]", "value": "12.3 ± 3.0", "unit": "%"},
      {"measurement": "Body Weight Δ (mean g ± SD)", "setting": "[1]; [3]", "value": "2.3 ± 0.6", "unit": "g"},
      {"measurement": "Mortalities", "setting": "[1]; [3]", "value": "0/3"},
      {"measurement": "Body Weight % Change", "setting": "[1]; [4]", "value": "6.5 ± 2.6", "unit": "%"},
      {"measurement": "Body Weight Δ (mean g ± SD)", "setting": "[1]; [4]", "value": "1.3 ± 0.6", "unit": "g"},
      {"measurement": "Mortalities", "setting": "[1]; [4]", "value": "0/3"},
      {"measurement": "Body Weight % Change", "setting": "[1]; [5]", "value": "−28.6 ± 3.5", "unit": "%"},
      {"measurement": "Body Weight Δ (mean g ± SD)", "setting": "[1]; [5]", "value": "-6.1 ± 0.9", "unit": "g"},
      {"measurement": "Mortalities", "setting": "[1]; [5]", "value": "1/3"},
      {"measurement": "Body Weight % Change", "setting": "[1]; [6]", "value": "−27.5 ± 2.1", "unit": "%"},
      {"measurement": "Body Weight Δ (mean g ± SD)", "setting": "[1]; [6]", "value": "-5.3 ± 0.6", "unit": "g"},
      {"measurement": "Mortalities", "setting": "[1]; [6]", "value": "2/3"},
      {"measurement": "Body Weight % Change", "setting": "[1]; [7]", "value": "−22.1 ± 13.1", "unit": "%"},
      {"measurement": "Body Weight Δ (mean g ± SD)", "setting": "[1]; [7]", "value": "-5.1 ± 3.2", "unit": "g"},
      {"measurement": "Mortalities", "setting": "[1]; [7]", "value": "3/3"},
      {"measurement": "Body Weight % Change", "setting": "[1]; [8]", "value": "−25.3 ± 3.9", "unit": "%"},
      {"measurement": "Body Weight Δ (mean g ± SD)", "setting": "[1]; [8]", "value": "-5.0 ± 1.0", "unit": "g"},
      {"measurement": "Mortalities", "setting": "[1]; [8]", "value": "3/3"},
      {"measurement": "Body Weight % Change", "setting": "[1]; [9]", "value": "−24.9 ± 1.6", "unit": "%"},
      {"measurement": "Body Weight Δ (mean g ± SD)", "setting": "[1]; [9]", "value": "-5.6 ± 0.6", "unit": "g"},
      {"measurement": "Mortalities", "setting": "[1]; [9]", "value": "3/3"},
      {"measurement": "Body Weight % Change", "setting": "[1]; [10]", "value": "−23.6 ± 11.9", "unit": "%"},
      {"measurement": "Body Weight Δ (mean g ± SD)", "setting": "[1]; [10]", "value": "-5.4 ± 2.9", "unit": "g"},
      {"measurement": "Mortalities", "setting": "[1]; [10]", "value": "3/3"},
      {"measurement": "MTD", "setting": "[1]; single dose i.v., normal mice", "value": 4, "unit": "mg/kg"},
      {"measurement": "IC50", "setting": "[2]", "value": "3.82 ± 0.47", "unit": "nM"}
    ]}
  ]
}
